Measured values from patent US4732970A, “Antitumor amino acid and peptide derivatives of 1,4-bis(aminoalkyl and hydroxy-aminoalkyl)amino)-5,8-dihydroxyanthraquinones” (priority 1986, dated 1988).
Like-named read-outs stand apart in the source and are kept apart here.

Tested on: lymphocytic leukemia P388
Assay: Lymphocytic Leukemia P388 Test
Format: in vivo, BDF1 mice
Settings: for response vs control in vivo at 0.75 mg/kg / response vs control in vivo at 1.5 mg/kg / response vs control in vivo at 3 mg/kg: Mus musculus, P388, ip; for response vs control in vivo at 0.75 mg/kg / response vs control in vivo at 1.5 mg/kg / response vs control in vivo at 3 mg/kg / T/C × 100 (%): ratio of survival time treated/control; for Median Survival: BDF1 mice
Method: The animals used were BDF1 mice, all of one sex, weighing a minimum of 18 g and all within a 3 g weight range. There were 5 or 6 mice per test group. The tumor transplant was by intraperitoneal injection of 0.5 ml of dilute ascitic fluid containing 10^6 cells of lymphocytic leukemia P388. The test compounds were administered intraperitoneally on days 1, 5 and 9 (relative to tumor inocu-lation) at various doses. The animals were weighed and survivors recorded on a regular basis for 60 days. The median survival time and the ratio of survival time for treated (T)/control (C) animals were calculated.

[1] = dose 0.75 mg/kg intraperitoneally on days 1, 5 and 9
[2] = dose 1.5 mg/kg intraperitoneally on days 1, 5 and 9
[3] = dose 3 mg/kg intraperitoneally on days 1, 5 and 9

Row | Compound | response vs control in vivo at 0.75 mg/kg (dose 0.75 mg/kg intraperitoneally on days 1, 5 and 9, read-out: T/C × 100 (%)) [%] | response vs control in vivo at 1.5 mg/kg (dose 1.5 mg/kg intraperitoneally on days 1, 5 and 9, read-out: T/C × 100 (%)) [%] | response vs control in vivo at 3 mg/kg (dose 3 mg/kg intraperitoneally on days 1, 5 and 9, read-out: T/C × 100 (%)) [%] | Median Survival [1] [days] | Median Survival [2] [days] | Median Survival [3] [days] | response vs control in vivo at 0.75 mg/kg (read-out: T/C × 100 (%), dose 0.75 mg/kg intraperitoneally on days 1, 5 and 9) [%] | response vs control in vivo at 1.5 mg/kg (read-out: T/C × 100 (%), dose 1.5 mg/kg intraperitoneally on days 1, 5 and 9) [%] | response vs control in vivo at 3 mg/kg (read-out: T/C × 100 (%), dose 3 mg/kg intraperitoneally on days 1, 5 and 9) [%] | T/C × 100 (%) [1] [%] | T/C × 100 (%) [2] [%] | T/C × 100 (%) [3] [%]
1 | CC(C)CC(N)C(=O)N(CCO)CCNc1ccc(NCCN(CCO)C(=O)C(N)CC(C)C)c2c1C(=O)c1c(O)ccc(O)c1C2=O.Cl.Cl (stereo not drawn) [Example 28, N,N'-[(9,10-Dihydro-5,8-dihydroxy-9,10-dioxo-1,4-anthracenediyl)bis(imino-2,1-ethanediyl)]bis[2-amino-N-(2-hydroxyethyl)-4-methylpentanamide], dihydrochloride] | 109 | 127 | 155 | 12.0 | 14.0 | 17.0 | – | – | – | – | – | –
2 | Br.Br.CC(C)C[C@H](N)C(=O)N[C@@H](C)C(=O)NCCNc1ccc(NCCNC(=O)[C@H](C)NC(=O)[C@@H](N)CC(C)C)c2c1C(=O)c1c(O)ccc(O)c1C2=O [Example 50, N,N'-[(9,10-Dihydro-5,8-dihydroxy-9,10-dioxo-1,4-anthracenediyl)bis(imino-2,1-ethanediyl)]bis[L-leucyl-L-alaninamide], dihydrobromide] | – | – | – | 17.0 | 20.0 | 20.0 | 170 | 200 | 200 | – | – | –
3 | CC(C)C[C@H](NC(=O)OCc1ccccc1)C(=O)N[C@@H](C)C(=O)N[C@@H](CC(C)C)C(=O)NCCNc1ccc(NCCNC(=O)[C@H](CC(C)C)NC(=O)[C@H](C)NC(=O)[C@H](CC(C)C)NC(=O)OCc2ccccc2)c2c1C(=O)c1c(O)ccc(O)c1C2=O [Example 51] | – | – | – | 20.0 | 19.0 | 17.0 | – | – | – | 182 | 173 | 155
4 | Br.Br.CC(C)C[C@H](NC(=O)[C@H](C)NC(=O)[C@@H](N)CC(C)C)C(=O)NCCNc1ccc(NCCNC(=O)[C@H](CC(C)C)NC(=O)[C@H](C)NC(=O)[C@@H](N)CC(C)C)c2c1C(=O)c1c(O)ccc(O)c1C2=O [Example 52, N,N'-[(9,10-Dihydro-5,8-dihydroxy-9,10-dioxo-1,4-anthracenediyl)bis(imino-2,1-ethanediyl)]bis[L-leucyl-L-Alanyl-L-leucinamide]dihydrobromide] | – | – | – | 20.5 | 25.5 | 25.0 | – | – | – | 205 | 255 | 250
5 | O=C(CNC(=O)OCc1ccccc1)N[C@@H](Cc1ccccc1)C(=O)NCCNc1ccc(NCCNC(=O)[C@H](Cc2ccccc2)NC(=O)CNC(=O)OCc2ccccc2)c2c1C(=O)c1c(O)ccc(O)c1C2=O [Example 53] | – | – | – | 18.5 | 17.5 | 19.0 | – | – | – | 168 | 159 | 173
6 | C[C@H](NC(=O)OCc1ccccc1)C(=O)NCC(=O)NCCNc1ccc(NCCNC(=O)CNC(=O)[C@H](C)NC(=O)OCc2ccccc2)c2c1C(=O)c1c(O)ccc(O)c1C2=O [Example 55] | – | – | – | 12.5 | 13.0 | 19.0 | – | – | – | 114 | 118 | 173
7 | Br.Br.C[C@H](N)C(=O)NCC(=O)NCCNc1ccc(NCCNC(=O)CNC(=O)[C@H](C)N)c2c1C(=O)c1c(O)ccc(O)c1C2=O [Example 56, N,N'-[(9,10-Dihydro-5,8-dihydroxy-9,10-dioxo-1,4-anthracenediyl)bis(imino-2,1-ethanediyl)]bis[L-alanyl-glycinamine]dihydrobromide] | – | – | – | 21.0 | 28.0 | 32.5 | – | – | – | 191 | 255 | 295
